The results in this text go back to US9840494B2, “Quinazoline derivative” (Tianjin Hemay Oncology Pharmaceutical Co., Ltd., priority 2013, dated 2017).

SMILES strings stand for the structures. Marks after values point to notes of the source that are not given here.

The nature of series [1]: Bioavailability assay, Experiment III (free base). Format: in vivo. As to conditions: Wistar rats. On the procedure: Experiment III. Bioavailability Assay for N-[4-(3-chloro-4-fluorophenylamino)-7-(2-methoxyethoxy)quinazolin-6-yl]-2-[1-(2-methoxyethyl)piperidin-4-ylidene]acetamide
8 Wistar rats (male, weighing 160-190 g) were purchased from Laboratory Animal Center, Chinese PLA Academy of Military Medical Sciences. License No.: SCXK (Army) 2012-0004; Certificate No.: 0037074.
1) the compound was precisely weighed in a 10 ml glass tube;
2) The volume of DMSO was 2% of the total volume and DMSO was pipetted. The tip of the pipette was slowly rotated with being pressed against the inner wall of the centrifuge tube, and DMSO was pipetted in several times to dissolve the compound adsorbed on the wall of the centrifuge tube. After all the compound was transferred to the bottom portion of the centrifuge tube, the compound was dissolved by vortex and then placed in a water bath at 80° C.;
3) polyoxylethylene 35-castor oil of which the volume was 6% of the total volume was added and vortex;
4) sodium chloride solution for injection (0.9%) of which the volume was 92% of the total volume was added and vortexed to give a clear solution which will be used within 60 min
8 rats were fasted and ad libitum accessed to water for 12 h before administration. They were randomly divided into two groups, i.e. four rats per group, and were administered with the drug according to the administration scheme. Blood (about 0.5 ml) was drawn from the orbital venous plexus before dosing and at 5 min, 0.5 h, 1 h, 2 h, 3 h, 4 h, 5 h, 6 h and 8 h after dosing, and put into a heparinized centrifuge tube and centrifuged at 8000 r/min for 10 min 100 μl of the plasma was recovered, and 200 μl of 0.2% acetic acid in methanol (containing an internal standard (irbesartan, 20 ng/ml)) was added thereto to precipitate protein, vortexed for 2 min and centrifuged at 13000 r/min for 10 min The supernatant was obtained, and 20 μl of the supernatant was injected for detection.
Chromatographic column: phenomenex Synergi Polar-RP (150×4.6 mm, 2.5 μm)
Flow rate: 1 ml/min; column temperature: 40° C.
Mobile phase: A phase: 5 mM aqueous solution of ammonium formate; B phase: methanol, and the gradient was as follows: […]
API3000 LC-MS/MS; ESI source; MRM positive ion scan mode; and the parameters were as follows:
The main pharmacokinetic parameters and oral bioavailability results were calculated by using DAS2.0 (statistical moment).
Method for the calculation of bioavailability: F=(AUCig×Div)/(AUCiv×Dig)×100%
wherein D is dose; AUC: the area under the plasma drug concentration-time curve; ig represents intragastric administration; and iv represents intravenous injection administration.

The subject of series [2] is FaDu human head and neck cancer xenograft. The series is described as follows: FaDu human head and neck cancer xenograft model. The conditions noted are these: for Tumor Weight (x ± S.D.) / Tumor Inhibitor Rate / Relative Tumor Volume (x ± S.D.) / T/C / Tumor Volume (x ± S.D.): FaDu xenograft; for Tumor Inhibitor Rate: by tumor weight; for Relative Tumor Volume (x ± S.D.) / T/C / Tumor Volume (x ± S.D.): end of the assay. Format: in vivo, nude mice. Here is the method: Tumor cells were cultured in an incubator at 37° C. with 5% CO2 using MEM medium containing 10% inactivated fetal calf serum, 100 U/ml penicillin and 100 μg/ml streptomycin. The tumor cells in logarithmic growth phase were collected, adjusted to an appropriate density and injected subcutaneously into nude mice (0.2 ml per mouse). An xenograft model was established after tumor was formed in the nude mice and passaged in vivo for more than three generations.
The above-mentioned tumor-bearing mice were sacrificed by cervical dislocation. The tumor was taken out and cut into small tumor pieces (about 2 mm×2 mm×2 mm) under sterile conditions. The small tumor pieces were inoculated subcutaneously into nude mice on the right shoulder blade with a trocar. […] The animals in each group were subjected to intragastric administration daily for 14 consecutive days. The day of grouping is assigned as day 0.
Tumor volume is calculated as: volume=0.5×long diameter×short diameter^2. The relative tumor volume (RTV) was calculated based on the measurements as: RTV=Vt/V0, wherein V0 is the tumor volume measured when the animals were grouped to be administrated (i.e., d0), and Vt is the tumor volume when each measurement was taken. Relative tumor proliferation rate T/C was calculated based on relative tumor volume, in which T is the mean value of the relative tumor volume of the treatment group, and C is the mean value of the relative tumor volume of the solvent control group. T/C was calculated as follows: T/C=TRTV/CRTV×100% (TRTV: RTV of the treatment group; CRTV: RTV of the solvent control group) Inhibition rate (%)=(mean tumor weight of the solvent control group−mean tumor weight of the treatment group)/mean tumor weight of the solvent control group×100%. Percentage of body weight change=Wn/W0×100% (Wn: mean body weight of experimental animals in each group at day n, W0: mean body weight of experimental animals in each group at day 0).
One-Way ANOVA test was conducted in SPSS13.0, performing statistical analysis between groups.

Where [3] appears, read: 20 mg/kg intragastric gavage, preformulation.
Where [4] appears, read: 20 mg/kg tail intravenous injection, preformulation.
The mark [5] stands for this setting: male, rat, plasma, po, 20 mg/kg intragastric gavage, preformulation.
Where [6] appears, read: male, rat, plasma, 20 mg/kg tail intravenous injection, preformulation.
Setting [7] is: FaDu xenograft nude mice, 20, 40 and 80 mg/kg intragastric daily for 14 days.
Where [8] appears, read: 20 mg/kg intragastric daily for 14 days.
[9] abbreviates: 40 mg/kg intragastric daily for 14 days.
Setting [10] is: 80 mg/kg intragastric daily for 14 days.

With `COCCOc1cc2ncnc(Nc3ccc(F)c(Cl)c3)c2cc1NC(=O)C=C1CCN(CCOC)CC1` [Compound 1, N-[4-(3-chloro-4-fluorophenylamino)-7-(2-methoxyethoxy)quinazolin-6-yl]-2-[1-(2-methoxyethyl)piperidin-4-ylidene]acetamide], in series [1] (setting [3]), the CLz/F is 103 mL/min/kg and the t½z is 4.59 h. In series [1] (setting [4]), the CLz worked out at 24.7 mL/min/kg and the t½z was found to be 4.39 h. Also, the bioavailability in series [1] (male, rat, plasma, oral, 20 mg/kg ig vs 20 mg/kg iv) stood at 23.9%. In series [1] (setting [5]), the area under the curve AUC(0-inf) is 3320 ng·h/mL, the AUC(0-t) came to 2190 ng·h/mL, the Cmax was determined as 416 ng/mL and the time of peak concentration (Tmax) amounted to 2.5 h. For the same compound, in series [1] (male, rat, plasma, po, 20 mg/kg intragastric gavage, preformulation, read-out: Vz/F), the Vd/F was 39.2 L/kg. For the same compound, in series [1] (setting [6]), the AUC(0-inf) was determined as 13900 ng·h/mL, the AUC(0-t) came out at 11800 ng·h/mL, the Cmax came out at 13200 ng/mL and the time to peak (Tmax) stood at 0.083 h. For the same compound, the Vd in series [1] (male, rat, plasma, 20 mg/kg tail intravenous injection, preformulation, read-out: Vz) was determined as 9.55 L/kg.

With `COCCOc1cc2ncnc(Nc3ccc(F)c(Cl)c3)c2cc1NC(=O)C=C1CCN(CCOC)CC1.CS(=O)(=O)O` [Compound 3, N-[4-(3-chloro-4-fluorophenylamino)-7-(2-methoxyethoxy)quinazolin-6-yl]-2-[1-(2-methoxyethyl)piperidin-4-ylidene]acetamide dimethylsulfonate], in series [2] (setting [7]), the “Body weights of the experimental animals” value is reported as “not significantly reduced” and the “abnormality in the experimental animals” value is “no significant abnormality was observed”. In addition, in series [2] (setting [8]), the “Tumor Weight (x ± S.D.)” value is 0.684 ± 0.192 g, the “Tumor Inhibitor Rate” value was 37.5%, the “Relative Tumor Volume (x ± S.D.)” value is 6.1 ± 1.3 and the T/C was determined as 61.4%. In addition, the “Tumor Volume (x ± S.D.)” value in series [2] (setting [8]) is given as 703.3 ± 144.2** mm^3. For the same compound, in series [2] (setting [9]), the “Tumor Weight (x ± S.D.)” value was determined as 0.522 ± 0.427 g, the “Tumor Inhibitor Rate” value stood at 52.4%, the “Relative Tumor Volume (x ± S.D.)” value is reported as 5.5 ± 1.9 and the T/C was 54.7%. The “Tumor Volume (x ± S.D.)” value in series [2] (setting [9]) is reported as 602.9 ± 204.4*** mm^3. Besides, in series [2] (setting [10]), the “Tumor Weight (x ± S.D.)” value is reported as 0.260 ± 0.128 g, the “Tumor Inhibitor Rate” value came out at 76.2%, the “Relative Tumor Volume (x ± S.D.)” value is on record as 3.2 ± 1.6 and the T/C is given as 31.6%. Besides, in series [2] (setting [10]), the “Tumor Volume (x ± S.D.)” value is 352.3 ± 157.0*** mm^3.
